Experimental data reported in patent US12673057B2, “RIPK2 inhibition for the treatment of cancer” (CEDARS-SINAI MEDICAL CENTER, priority 2020, dated 2026).
Entries after “also recorded” stand apart in the source; their conditions may differ. Like-named read-outs stand apart in the source and are kept apart here. Residues, ends and D or L forms follow the SMILES beside them. *: point of attachment. Cbz = O=C(OCc1ccccc1)*

Experiments:
PC3 cells = assay: 3D spheroid invasion assay; settings: 10 μM, 3D culture
22Rv1 cells = test system: 22Rv1 cells
Method: Experimental metastasis model: For In vivo metastasis assays, pBMN (CMV-copGFP-Luc2-Puro) (Addgene) was stably transfected into control and RIPK2-KO 22Rv1 cells. Two weeks later, luciferase-expressing cells were sorted with a FACSAria III (BD Biosciences) using the same gate for GFP. […] To each male SCID/Beige mouse (7-week-old; Charles River), 100 μL of 1×10^7 cells/mL in DPBS was intracardially injected into the left cardiac ventricle. Each week, 150 μL of 30 mg/mL D-luciferin was intraperitoneally injected into each mouse, followed by measuring tumor metastasis with an IVIS Spectrum In Vivo Imaging System (PerkinElmer). Luciferase activity was quantified by the Living Image software (Caliper Life Sciences, v4.3.1).
Established metastasis model: For drug treatment, to each male SCID/Beige mouse (8-week-old; Charles River), 100 μL of 2.5×10^6 cells/mL in DPBS was intracardially injected. […] Two more mice were assigned to drug treatment groups in preparation for possible drug toxicity deaths, compared with the control group. Mice were daily administered by oral gavage (po qd) with a drug or vehicle control for 28 days. GSK583 was administered at 10 mg/kg po qd. […] Metastases were visualized by bioluminescence imaging every week as described above. At the end of the experiments, mice were sacrificed by standard necropsy, and tumors were harvested and subjected to histopathology analyses.
In the clinical scenario, patients with nmCRPC have no detectable metastases by conventional radiographic imaging. […] To investigate whether pharmacological inhibition of RIPK2 can suppress PC metastasis in a setting that mimics the clinical scenario, we injected the aforementioned luciferase-tagged control 22Rv1 cells intracardially into male SCID/Beige mice, and waited for 9 days to allow for the formation of early metastatic lesions, prior to drug treatment (FIG. 22G). To determine whether GSK583 impairs metastatic outgrowth, we randomized the mice into two groups (FIG. 31A), followed by treatment with vehicle control or GSK583 (10 mg/kg) administered by oral gavage every day (po qd).

[1] = test system: PC3, DU145, and 22Rv1 cells; assay: Clonogenic assay (anchorage-dependent colony formation); format: cell-based, human
Method: Two milliliters of PC3 (250/mL), DU145 (250/mL), or 22Rv1 (1,000/mL) cells were seeded in 6-well plates and cultured in 10% FBS-containing media, which were replaced every 2-3 days. After 10-14 days, cells were fixed in 4% paraformaldehyde for 15 min and rinsed with DPBS for three times. Cells were stained with 120 μg/mL crystal violet solution. Cell colonies were quantified under an All-in-one microscope (Keyence) as described in the migration assay.

MYC mRNA = MYC mRNA abundance by quantitative RT-PCR; format: cell-based; settings: different doses and time
Excerpt: Total RNA was extracted from cells using the TRIZOL (Invitrogen). Messenger RNA was converted to the first-strand cDNA using iScript cDNA synthesis kit (Bio-Rad), followed by RT-PCR reaction using SYBR Green PCR Master Kit in QuantStudio 5 Systems (Applied Biosystems). Gene expression was normalized to GAPDH using the comparative CT method. To determine how RIPK2 upregulates the c-Myc protein, we first examined whether RIPK2 regulates the transcription of the MYC gene. […] Thus, the regulation of c-Myc protein abundance by RIPK2 is mainly via a post-transcriptional mechanism.

[2] = mouse, in vivo, po, 30 mg/kg
RIPK2 = assay: Cell-based MKK7 phosphorylation immunoblot, surrogate for RIPK2 activity, RIPK2-KO HEK293T cells; parameters: species or system human; settings: 10 μM, 2 h, 10% fetal bovine serum
[3] = test system: PC3, DU145, and 22Rv1 cells; assay: Soft agar assay (anchorage-independent colony formation); format: cell-based, human; settings: 10 μM
Method: Soft agar assay was performed essentially as described (Borowicz et al., 2014). Briefly, 1.5 mL of 0.5% Nobel agar solution was plated in each well of 6-well plates as the bottom layer. 1.5 mL of 6.67×10^3/mL (for PC3 and DU145) or 1.33×10^4/mL (for 22Rv1) cells in 0.3% noble agar solution were plated in 6-well plates as the top layer. […] The medium was replaced every 2-3 days. After 2-3 weeks, cell colonies were stained with 0.1% crystal violet solution for 20 minutes and washed with deionized water for five times. Cell colonies were quantified under an All-in-one microscope (Keyence) as described in the migration assay.

[4] = test system: RIPK2/MKK7(/JNK)/c-Myc signaling; assay: Immunoblot of endogenous p-JNK, p-c-Myc-S62 and c-Myc in parental PC cells; format: cell-based, human; settings: 10 μM GSK583 or 5 μM Ponatinib, 2 h
[5] = test system: c-Myc-Ser62 phosphorylation; assay: RIPK2-induced c-Myc-Ser62 phosphorylation immunoblot in RIPK2/MKK7-DKO HEK293T cells; format: cell-based, human
Method: (A) Representative immunoblots of the indicated proteins in total lysates of HEK293T cells with RIPK2- and MKK7-double knockout, which were transiently co-transfected with 0.5 μg MYC, 0.5 μg RIPK2m4, and 0.1 μg MAP2K7 or vector plasmids and then treated with vehicle control, MKK7-COV-3 (25 μM), or JNK-IN-8 (1 μM) in 10% FBS-containing medium for 2 h. (B) Representative images (upper) and quantification (lower) of PLA detecting the association of endogenous MKK7 and c-Myc in HEK293T cells (n=4 per group). (C) Representative images of immunofluorescence colocalization of MKK7 and c-Myc in RIPK2/MKK7-DKO HEK293T cells, which were transiently co-transfected with RIPK2m4, MKK7-His, and MYC plasmids. (D) Representative immunoblots of the indicated proteins after in vitro kinase reactions. (E) Representative immunoblots of the indicated proteins in total lysates of RIPK2/MKK7-DKO HEK293T cells, which were transiently transfected with the indicated forms of MKK7 plasmids or vector control. (F) Representative immunoblots of the indicated proteins in total lysates, cytoplasmic fraction, and nuclear fraction of RIPK2/MKK7-DKO HEK293T cells, which were transiently co-transfected with RIPK2m4, MYC, and MKK7 or vector control. (G) Representative images (upper) and quantification (lower) of PLA detecting the MKK7-c-Myc complex in RIPK2-KO HEK293T cells, which were transiently transfected with MYC and RIPK2m4 or vector control (n=5 per group). […] Data are Mean±SEM.
MKK7-COV-3, 25 μM; JNK-IN-8, 1 μM; 2-h treatment).

JNK = assay: RIPK2-induced c-Jun phosphorylation (surrogate for JNK activity) in RIPK2/MKK7-DKO HEK293T cells; format: cell-based, human; settings: 1 μM, 2-h treatment
Method: (A) Representative immunoblots of the indicated proteins in total lysates of HEK293T cells with RIPK2- and MKK7-double knockout, which were transiently co-transfected with 0.5 μg MYC, 0.5 μg RIPK2m4, and 0.1 μg MAP2K7 or vector plasmids and then treated with vehicle control, MKK7-COV-3 (25 μM), or JNK-IN-8 (1 μM) in 10% FBS-containing medium for 2 h. (B) Representative images (upper) and quantification (lower) of PLA detecting the association of endogenous MKK7 and c-Myc in HEK293T cells (n=4 per group). (C) Representative images of immunofluorescence colocalization of MKK7 and c-Myc in RIPK2/MKK7-DKO HEK293T cells, which were transiently co-transfected with RIPK2m4, MKK7-His, and MYC plasmids. (D) Representative immunoblots of the indicated proteins after in vitro kinase reactions. (E) Representative immunoblots of the indicated proteins in total lysates of RIPK2/MKK7-DKO HEK293T cells, which were transiently transfected with the indicated forms of MKK7 plasmids or vector control. […] (G) Representative images (upper) and quantification (lower) of PLA detecting the MKK7-c-Myc complex in RIPK2-KO HEK293T cells, which were transiently transfected with MYC and RIPK2m4 or vector control (n=5 per group). […]

c-Myc protein = c-Myc protein degradation under cycloheximide treatment in PC3 cells; format: cell-based, human; settings: in the presence of CHX treatment
Excerpt: In human cells, the c-Myc protein can be rapidly stabilized through Ser62 phosphorylation, which prevents the targeted degradation of c-Myc by the ubiquitin-proteasome system (Farrell and Sears, 2014). Therefore, we investigated whether RIPK2 phosphorylates and stabilizes the c-Myc protein. Ectopic overexpression of RIPK2 increased the abundance of phospho-c-Myc-Ser62 (p-c-Myc-Ser62) and total c-Myc in a dose-dependent fashion (FIG. 18L). […] Of note, RIPK2 is more frequently amplified or gained in mCRPC or overexpressed in primary PC than all known direct c-Myc-Ser62 kinases (FIG. 29). This raises a possibility that RIPK2 can more efficiently stabilize and activate c-Myc, and thus its overexpression is more favored by PC cells than the known direct c-Myc-Ser62 kinases. Collectively, RIPK2 stabilizes the c-Myc protein by phosphorylating its Ser62 residue and preventing it from proteasomal degradation, and RIPK2 is potentially a major stabilizer of the c-Myc protein in PC cells.

[6] = cited from earlier work
PC3 and 22Rv1 cells = assay: PC cell viability; settings: 1 μM, 10% FBS-containing medium

CC(C)(C)S(=O)(=O)c1ccc2nccc(Nc3n[nH]c4ccc(F)cc34)c2c1 [GSK583]
spheroid invasion of PC3 cells (PC3 cells): significantly decreased; also recorded: significantly inhibited; also recorded: suppresses
PC liver metastasis in vivo (22Rv1 cells; 10 mg/kg po qd): Inhibits
prostate cancer (22Rv1) metastasis in mice (22Rv1 cells; 10 mg/kg po qd): significantly decreased; also recorded: significantly suppressed; also recorded: significantly reduces; also recorded: Inhibits
decrease of BLI intensities in the ventral-side mid-body (liver metastasis) (22Rv1 cells; 10 mg/kg po qd, week 4): 67%
reduction of metastatic progression (total BLI intensities) (22Rv1 cells; 10 mg/kg po qd, week 4): 50%
anchorage-dependent colony formation ([1]; 10 μM, PC3, DU145, and 22Rv1): suppresses
inhibition at 10 µM ([1]; Homo sapiens, read-out: inhibition of colony formation): ≥ 40%
inhibition of colony formation ([1]; low doses (≤1 μM), PC3, DU145, and 22Rv1): not at low doses
regulation of MYC mRNA abundance (MYC mRNA): ~10%
toxicity to mice [2]: toxic to mice
MKK7 phosphorylation levels (a surrogate for RIPK2 activity) (RIPK2): substantially decreased
anchorage-independent colony formation [3]: suppresses
RIPK2/MKK7(/JNK)/c-Myc signaling [4]: can inhibit

Cc1cc(NC(=O)c2cccc(NC(=O)/C=C/CN(C)C)c2)ccc1Nc1nccc(-c2cccnc2)n1 [JNK-IN-8]
reduction of RIPK2-induced c-Myc-Ser62 phosphorylation ([5]; 1 μM, 2-h treatment): 16%
inhibition of RIPK2-induced c-Myc-Ser62 phosphorylation at higher concentrations ([5]; up to 25 μM): could not enhance its inhibition
RIPK2-induced c-Jun phosphorylation, a surrogate for JNK activity (JNK): completed abolished

CC(C)C[C@@H](C=O)NC(=O)[C@H](CC(C)C)NC(=O)[C@H](CC(C)C)NC(=O)OCc1ccccc1 [MG132] (Cbz-Leu-Leu-Leu-aldehyde)
degradation of the c-Myc protein (c-Myc protein): degradation can be blocked

C=CC(=O)Nc1cccc(-c2n[nH]c3cc(C)ccc23)c1 [MKK7-COV-3]
decrease of RIPK2-induced c-Myc-Ser62 phosphorylation ([5]; 25 μM, 2-h treatment): 45%

Cc1ccc(C(=O)Nc2ccc(CN3CCN(C)CC3)c(C(F)(F)F)c2)cc1C#Cc1cnc2cccnn12 [Ponatinib]
venous thromboembolic events ([6]; % of patients): 6%
arterial occlusive adverse events: cardiac vascular events ([6]; patients): 21%
arterial occlusive adverse events: cerebrovascular ([6]; patients): 9%
arterial occlusive adverse events: peripheral vascular ([6]; patients): 12%
common adverse event: abdominal pain ([6]; patients): 48%
common adverse event: arterial ischemia ([6]; patients): 42%
common adverse event: arthralgia ([6]; patients): 32%
common adverse event: back pain ([6]; patients): 21%
common adverse event: constipation ([6]; patients): 41%
common adverse event: diarrhea ([6]; patients): 20%
common adverse event: dry skin ([6]; patients): 42%
common adverse event: fatigue ([6]; patients): 47%
common adverse event: headache ([6]; patients): 43%
common adverse event: hypertension ([6]; patients): 69%
common adverse event: myalgia ([6]; patients): 24%
common adverse event: nausea ([6]; patients): 28%
common adverse event: pain in extremity ([6]; patients): 23%
common adverse event: peripheral neuropathy ([6]; patients): 24%
common adverse event: pyrexia ([6]; patients): 26%
common adverse event: rash ([6]; patients): 63%
reduction of total BLI intensities (22Rv1 cells; high-dose 30 mg/kg po qd for 10 days then 15 mg/kg, week 4): 92%
reduction of total BLI intensities (22Rv1 cells; low-dose 6 mg/kg po qd, week 4): 74%
IC50 ([1]; Homo sapiens, read-out: IC50 of colony formation of PC cells): < 1000 nM
effect on PC cell viability (PC3 and 22Rv1 cells): marginal effects
